The results in this text go back to patent US9765034B2, “5-halogenopyrazole biphenylcarboxamides” (BAYER CROPSCIENCE AG, priority 2012, dated 2017).

For one data set, the system named is Septoria tritici. As to the kind of experiment: In vivo preventive test on Septoria tritici (leaf spot on wheat). The following applies: wheat plants, preventive spray, 500 ppm, grading 24 days after contamination. As to the method:
Example: In Vivo Preventive Test on Septoria tritici (Leaf Spot on Wheat) […] Wheat plants (“Scipion” variety), sown in starter cups on a 50/50 peat soil-pozzolana substrate and grown at 22° C., are treated at the 1-leaf stage (10 cm height) by spraying with the active ingredient prepared as described above. Plants, used as controls, are treated with the mixture of acetone/tween/DMSO/water not containing the active material. After 24 hours, the plants are contaminated by spraying the leaves with an aqueous suspension of cryopreserved Septoria tritici spores (500 000 spores per ml). […] Grading (% of efficacy) is carried out 24 days after the contamination, in comparison with the control plants. Under these conditions, good (at least 70%) or total protection is observed at a dose of 500 ppm with the following compounds: […]

The next data set has as its system Sphaerotheca fuliginea. As to the kind of experiment: In vivo preventive test on Sphaerotheca fuliginea (powdery mildew on cucurbits). To be noted: gherkin plants, preventive spray, 500 ppm, grading 12 days after contamination. As to the method: Example: In Vivo Preventive Test on Sphaerotheca fuliginea (Powdery Mildew on Cucurbits) […] Gherkin plants (“Vert petit de Paris” variety), sown in starter cups on a 50/50 peat soil-pozzolana substrate and grown at 24° C., are treated at the Z11 cotyledon stage by spraying with the active ingredient prepared as described above. Plants, used as controls, are treated with the mixture of acetone/tween/DMSO/water not containing the active material. After 24 hours, the plants are contaminated by spraying the cotyledons with an aqueous suspension of Sphaerotheca fuliginea spores (100 000 spores per ml). The spores are collected from infected plants. […] Grading (% of efficacy) is carried out 12 days after the contamination, in comparison with the control plants. Under these conditions, good (at least 70%) or total protection is observed at a dose of 500 ppm with the following compounds: […]

The test system of another data set is Puccinia recondita. As to the kind of experiment: In vivo preventive test on Puccinia recondita (brown rust on wheat). The following applies: wheat plants, preventive spray, 500 ppm, grading 12 days after contamination. As to the method: Example: In Vivo Preventive Test on Puccinia recondita (Brown Rust on Wheat) […] Wheat plants (“Scipion” variety), sown in starter cups on a 50/50 peat soil-pozzolana substrate and grown at 22° C., are treated at the 1-leaf stage (10 cm height) by spraying with the active ingredient prepared as described above. Plants, used as controls, are treated with the mixture of acetone/tween/DMSO/water not containing the active material. After 24 hours, the plants are contaminated by spraying the leaves with an aqueous suspension of Puccinia […] spores (100 000 spores per ml). […] Grading (% of efficacy) is carried out 12 days after the contamination, in comparison with the control plants. Under these conditions, good (at least 70%) or total protection is observed at a dose of 500 ppm with the following compounds: […]

For another data set, the system named is Uromyces appendiculatus. The experiment in a line: In vivo preventive test on Uromyces appendiculatus (bean rust). To be noted: bean plants, preventive spray, 500 ppm, grading 11 days after contamination. The procedure:
Example: In Vivo Preventive Test on Uromyces appendiculatus (Bean Rust) […] Bean plants (“Saxa” variety), sown in starter cups on a 50/50 peat soil-pozzolana substrate and grown at 24° C., are treated at the 2-leaf stage (9 cm height) by spraying with the active ingredient prepared as described above. Plants, used as controls, are treated with the mixture of acetone/tween/DMSO/water not containing the active material. After 24 hours, the plants are contaminated by spraying the leaves with an aqueous suspension of Uromyces appendiculatus spores (150 000 spores per ml). […] Grading (% of efficacy) is carried out 11 days after the contamination, in comparison with the control plants. Under these conditions, good (at least 70%) or total protection is observed at a dose of 500 ppm with the following compounds: […]

Data set [1] in a line: logP by HPLC on reversed phase columns (EEC directive 79/831 Annex V.A8). The following applies: method [a]: LC-MS at pH 2.7, 0.1% formic acid in water / acetonitrile gradient 10% to 95%.
A further data set deals with Alternaria brassicae. The experiment in a line: In vivo preventive test on Alternaria brassicae (leaf spot on radish). The following applies: radish plants, preventive spray, 500 ppm, grading 6 days after contamination. The procedure:
Example: In Vivo Preventive Test on Alternaria brassicae (Leaf Spot on Radish) […] Radish plants (“Pernod Clair” variety), sown in starter cups on a 50/50 peat soil-pozzolana substrate and grown at 17° C., are treated at the cotyledon stage by spraying with the active ingredient prepared as described above. Plants, used as controls, are treated with the mixture of acetone/tween/DMSO/water not containing the active material. After 24 hours, the plants are contaminated by spraying the cotyledons with an aqueous suspension of Alternaria brassicae spores (50 000 spores per ml). The spores are collected from a 15-day-old culture. […] Grading (% of efficacy) is carried out 6 days after the contamination, in comparison with the control plants. Under these conditions, good (at least 70%) or total protection is observed at a dose of 500 ppm with the following compounds: […]

For the next data set, the system named is Pyricularia oryzae. Format: in vivo. The following applies: rice plants, preventive spray, 500 ppm, grading 6 days after contamination.
The subject of the next data set is Pyrenophora teres. As to the kind of experiment: In vivo preventive test on Pyrenophora teres (net blotch on barley). To be noted: barley plants, preventive spray, 500 ppm, grading 14 days after contamination. The procedure:
Example: In Vivo Preventive Test on Pyrenophora teres (Net Blotch on Barley) […] Barley plants (“Plaisant” variety), sown in starter cups on a 50/50 peat soil-pozzolana substrate and grown at 22° C., are treated at the 1-leaf stage (10 cm height) by spraying with the active ingredient prepared as described above. Plants, used as controls, are treated with the mixture of acetone/tween/DMSO/water not containing the active material. After 24 hours, the plants are contaminated by spraying the leaves with an aqueous suspension of Pyrenophora teres spores (12 000 spores per ml). The spores are collected from a 12-day-old culture. […] Grading (% of efficacy) is carried out 14 days after the contamination, in comparison with the control plants. Under these conditions, good (at least 70%) or total protection is observed at a dose of 500 ppm with the following compounds: […]

Another data set has as its system Botrytis cinerea. As to the kind of experiment: In vivo preventive test on Botrytis cinerea (grey mould). To be noted: gherkin plants, preventive spray, 500 ppm, grading 4 to 5 days after contamination. As to the method:
Example: In Vivo Preventive Test on Botrytis cinerea (Grey Mould) […] Gherkin plants (“Vert petit de Paris” variety), sown in starter cups on a 50/50 peat soil-pozzolana substrate and grown at 24° C., are treated at the Z11 cotyledon stage by spraying with the active ingredient prepared as described above. Plants, used as controls, are treated with the mixture of acetone/tween/DMSO/water not containing the active material. After 24 hours, the plants are contaminated by spraying the cotyledons with an aqueous suspension of cryopreserved Botrytis cinerea spores (50 000 spores per ml). The spores are suspended in a nutrient solution composed of 10 g/L of PDB, 50 g/L of D-Fructose, 2 g/L of NH4NO3 and 1 g/L of KH2PO4. […] Grading (% of efficacy) is carried out 4 to 5 days after the contamination, in comparison with the control plants. Under these conditions, good (at least 70%) or total protection is observed at a dose of 500 ppm with the following compounds: […]

On to `CC(=NOC(C)C)c1ccc(-c2ccccc2NC(=O)c2c(C(F)F)nn(C)c2Cl)cc1` [Example 1], for which the Eff. % came to 75% with Septoria tritici, 100% in the data set with Sphaerotheca fuliginea, 98% in the data set on Puccinia recondita and 100% in the data set with Uromyces appendiculatus. For the same compound, in data set [1], the logP was 5.03[a].

`C#CCON=Cc1ccc(-c2ccccc2NC(=O)c2c(C(F)F)nn(C)c2Cl)cc1` [Example 5]: the Eff. % is recorded as 88% in the data set on Alternaria brassicae; 90% in the data set with Pyricularia oryzae; 100% in the data set on Sphaerotheca fuliginea; 86% with Pyrenophora teres; 100% with Puccinia recondita; 100% with Uromyces appendiculatus. For the same compound, in the data set with Botrytis cinerea, the Eff. % is on record as 100%. For the same compound, in data set [1], the logP was 3.79[a].

As for `C#CCON=C(C)c1ccc(-c2ccccc2NC(=O)c2c(C(F)F)nn(C)c2F)cc1` [Example 12], the Eff. % in the data set with Alternaria brassicae turned out to be 97%; in the data set with Septoria tritici it was 75%; with Sphaerotheca fuliginea, 96%; in the data set on Pyrenophora teres, 80%; in the data set with Puccinia recondita, 98%; with Uromyces appendiculatus, 100%. Also, the Eff. % in the data set on Botrytis cinerea was 85%. In [1], the logP was 3.8[a].

Turning to `CCON=Cc1ccc(-c2ccccc2NC(=O)c2c(C(F)F)nn(C)c2Cl)cc1F` [Example 18], the Eff. % in the data set with Alternaria brassicae turned out to be 94%; in the data set with Septoria tritici it was 75%; with Sphaerotheca fuliginea, 100%; with Pyrenophora teres, 100%; in the data set with Puccinia recondita, 97%; in the data set with Uromyces appendiculatus, 100%. In the data set on Botrytis cinerea, this compound showed an Eff. % of 70%. Besides, in data set [1], the logP is 4.22[a].

Turning to `CC#CCON=Cc1ccc(-c2ccccc2NC(=O)c2c(C(F)F)nn(C)c2F)cc1` [Example 21], the Eff. % in the data set with Septoria tritici is 96%; with Sphaerotheca fuliginea, 100%; in the data set with Pyrenophora teres, 88%; in the data set on Puccinia recondita, 94%; in the data set on Uromyces appendiculatus, 100%; in the data set with Botrytis cinerea it was 98%. Besides, the logP in [1] is 3.87[a].

Consider `CC#CCON=Cc1ccc(-c2ccccc2NC(=O)c2c(C(F)F)nn(C)c2Cl)cc1` [Example 22], for which the Eff. % with Alternaria brassicae came out at 75%; with Septoria tritici, 96%; in the data set on Sphaerotheca fuliginea, 100%; with Puccinia recondita it was 98%; with Uromyces appendiculatus it was 100%; in the data set with Botrytis cinerea, 98%. In addition, the logP in [1] was 4.13[a].

As for `CON=Cc1c(F)cc(-c2ccccc2NC(=O)c2c(C(F)F)nn(C)c2Cl)cc1F` [Example 23], the Eff. % in the data set with Alternaria brassicae was 97%; with Septoria tritici it was 97%; in the data set on Sphaerotheca fuliginea it was 100%; in the data set on Pyrenophora teres, 97%; in the data set with Puccinia recondita it was 98%; with Uromyces appendiculatus it was 100%. In addition, in data set [1], the logP is 3.61[a].

Turning to `CON=Cc1ccc(-c2ccccc2NC(=O)c2c(C(F)F)nn(C)c2Cl)cc1C(F)(F)F` [Example 24], the Eff. % with Alternaria brassicae stood at 92%; in the data set on Septoria tritici, 92%; with Sphaerotheca fuliginea it was 100%; in the data set with Pyrenophora teres, 97%; with Puccinia recondita it was 100%; with Uromyces appendiculatus it was 100%. For the same compound, in [1], the logP is 4.25[a].

For the compound `CON=Cc1ccc(-c2ccccc2NC(=O)c2c(C(F)F)nn(C)c2Cl)cc1C` [Example 25], the Eff. % in the data set with Alternaria brassicae was 94%; in the data set on Septoria tritici, 75%; in the data set with Sphaerotheca fuliginea, 100%; in the data set on Pyrenophora teres, 100%; in the data set with Puccinia recondita, 100%; in the data set with Uromyces appendiculatus, 94%. In the data set with Botrytis cinerea, this compound had an Eff. % of 98%. Besides, the logP in data set [1] is 4.04[a].

Regarding `CON=Cc1ccc(-c2c(F)cccc2NC(=O)c2c(C(F)F)nn(C)c2Cl)cc1` [Example 28], the Eff. % was 92% in the data set with Alternaria brassicae; 92% with Septoria tritici; 100% in the data set with Sphaerotheca fuliginea; 93% in the data set on Pyrenophora teres; 89% in the data set with Puccinia recondita; 100% in the data set on Uromyces appendiculatus. In [1], the logP was 3.76[a].

As to `CON=Cc1ccc(-c2cc(F)ccc2NC(=O)c2c(C(F)F)nn(C)c2Cl)cc1` [Example 30], the Eff. % was 97% in the data set with Alternaria brassicae; 97% in the data set on Septoria tritici; 100% in the data set on Sphaerotheca fuliginea; 93% in the data set on Pyrenophora teres; 100% with Puccinia recondita; 100% with Uromyces appendiculatus. Moreover, in data set [1], the logP is 3.66[a].

For the compound `C#CCON=C(C)c1ccc(-c2cccc(NC(=O)c3c(C(F)F)nn(C)c3Cl)c2)cc1` [Example 35], the Eff. % is listed as 75% with Septoria tritici and 98% in the data set on Uromyces appendiculatus. The logP in data set [1] is 4.01[a].

For the compound `CCON=Cc1ccc(-c2ccccc2NC(=O)c2c(C(F)F)nn(C)c2Cl)cc1C` [Example 39], the Eff. % in the data set with Alternaria brassicae amounted to 94%; in the data set with Septoria tritici, 92%; in the data set with Sphaerotheca fuliginea, 100%; in the data set on Pyrenophora teres it was 100%; in the data set with Puccinia recondita, 97%; with Uromyces appendiculatus it was 100%. Besides, the Eff. % in the data set with Botrytis cinerea was 99%. Also, the logP in [1] is 4.48[a].

On to `CCON=Cc1ccc(-c2c(F)cccc2NC(=O)c2c(C(F)F)nn(C)c2Cl)cc1` [Example 40], for which the Eff. % came to 94% in the data set on Alternaria brassicae; 75% in the data set on Septoria tritici; 100% in the data set on Sphaerotheca fuliginea; 90% in the data set with Pyrenophora teres; 97% in the data set on Puccinia recondita; 100% with Uromyces appendiculatus. The logP in [1] was 4.18[a].
